Measurements as given in US8088772B2, “Sulfonamides and their use as a medicament” (The Genetics Company, Inc., priority 2006, dated 2012).

Assays:
βCatenin-BCL9 = assay: ELISA based protein-protein interaction assay; format: binding; settings: inhibition class of the βCatenin-BCL9 interaction
Description: In vitro ELISA-based Protein-protein Interaction Assay
Protein Production in Bacteria
cDNAs including the binding domains of Lgs and βCatenin were fused downstream of glutathione-S-transferase (GST) cDNA in pGEX-4T inducible bacterial expression vector (Pharmacia). Fusion proteins were produced in BL21 bacteria (e.g. Stratagene) following manufacturer's recommendation.
To isolate the produced fusions protein bacteria were lysed in sonication buffer (10 mM Tris HCl pH 8.0, 150 mM NaCl, 1 mM EDTA, 1.5% sarkosyl, 2% Triton-X-100, 1 mM DTT and protease inhibitors), followed by short sonication on ice (e.g. 3 times 20 seconds at middle power) and centrifugation. Cleared supernatants were incubated under gentle rotation with glutathione beads (Amersham Pharmacia) for 2 hrs at 4° C. Finally, beads were washed several time in washing buffer (20 mM Tris pH 8.0, 200 mM NaCl, 1 mM EDTA, 1 mM DTT, 1 mM MgCl2, 0.5% NP40), and stored in storage buffer (20 mM Tris pH 8.0, 200 mM NaCl, 1 mM EDTA, 1 mM DTT, 1 mM MgCl2, 10% glycerol, 0.5% NP40, and proteinase inhibitors). The quality of the preparations was checked by SDS-gel electrophoresis by standard methods well known by persons skilled in the art. […]

Wnt pathway = assay: Cell Assay (CA): inhibition of Wnt activity in cancer cells, Tcf reporter gene; format: cell-based; settings: inhibition class in the Cell Assay
Text: Inhibition of Wnt Activity in Cancer Cells
The effect of β-catenin/BCL9 inhibitors identified in the ELISA-based protein-protein interaction assay on the Wnt pathway can be evaluated in a cell culture system using a reporter gene responsive to the Tcf/Lef family of transcription factors or by quantitative analysis of Wnt target genes in appropriate cell lines.
A reporter gene is a construct which comprises a readily detectable or assayable gene such β-galactosidase, green fluorescent protein, chloramphenicol acetyltransferase or luciferase, linked in cis to a transcription factor response element and a minimal promoter. Depending on the expression vectors used, this protocol can be applied, e.g. for mammalian as well as for Drosophila cell lines. For instance, colon cancer cells with constitutively active Wnt pathway like DLD-1 or SW620 (ATCC) are a well suitable system. Hereby, a Tcf-4 driven luciferase reporter plasmid (i.e. TOP-FLASH, Upstate biotechnology, New York, USA) is transiently or stably transfected into cells known in the art. Any means for introducing genetic material into cells can be used, including but not limited to infection, electroporation or transfection. For instance, to introduce DNA into DLD-1 cells, a lipofection agent like the Lipofectamine transfection reagent (Life Technologies, Inc.) can be used. By transient transfection protocols, a second reporter gene, e.g. the renilla luciferase reporter plasmid pRL-SV40 (Promega Corporation, Madison USA), needs to be co-transfected to normalize for transfection efficiency. Drugs are added to the media 24 h after trans-fection (transient transfection) or 24 h after seeding of the cells (stably transfected cells). Cell extracts are prepared 24 to 48 h later and assayed for reporter gene activity as described by the manufacturer (eg. for luciferase activity: Promega Corporation). Compounds reducing reporter gene activity more than 50% compared to solvent alone treated cells are considered as hits. In parallel, toxicity can be assessed for instance by the yellow tetrazolium salt cell proliferation assay (MTT) assay.

| Compound | ELISA (βCatenin-BCL9) | CA (Wnt pathway) |
| --- | --- | --- |
| O=[N+]([O-])c1ccc(N/N=C/c2ccc(O)c(O)c2)c(S(=O)(=O)Nc2ccccc2Cl)c1 [TGC0008709] | 3.5 | 4 (61-80% inhibition) |
| O=[N+]([O-])c1ccc(N/N=C/c2cc(Cl)cc(Cl)c2O)c(S(=O)(=O)Nc2ccccc2Cl)c1 [TGC0010527] | 3 (41-60% inhibition) | 4.5 |
| O=[N+]([O-])c1ccc(N/N=C/c2cc(Cl)cc(Cl)c2)c(S(=O)(=O)Nc2ccccc2Cl)c1 [TGC0010536] | 2 (21-40% inhibition) | 5 (81-100% inhibition) |
| O=[N+]([O-])c1ccc(N/N=C/c2cccc(Oc3ccccc3)c2)c(S(=O)(=O)Nc2ccccc2Cl)c1 [TGC0010583] | 2 (21-40% inhibition) | 4 (61-80% inhibition) |
| Cc1ncc(CO)c(/C=N/Nc2ccc([N+](=O)[O-])cc2S(=O)(=O)Nc2ccccc2Cl)c1O [TGC0010626] | 3 (41-60% inhibition) | 4.5 |
| O=[N+]([O-])c1ccc(NN=C(Cc2ccccc2)Cc2ccccc2)c(S(=O)(=O)Nc2ccccc2Cl)c1 [TGC0010661] | 2 (21-40% inhibition) | 3 (41-60% inhibition) |
| O=C1Nc2ccccc2/C1=N/Nc1ccc([N+](=O)[O-])cc1S(=O)(=O)Nc1ccccc1Cl [TGC0010663] | 2.5 |  |
| CCN1C(=O)/C(=N\Nc2ccc([N+](=O)[O-])cc2S(=O)(=O)Nc2ccccc2Cl)c2ccccc21 [TGC0010665] | 2 (21-40% inhibition) | 4 (61-80% inhibition) |
| Cc1cc(/C=N\Nc2ccc([N+](=O)[O-])cc2S(=O)(=O)Nc2ccccc2Cl)c(C)n1-c1ccc(Cl)cc1 [TGC0010673] | 1 (0-20% inhibition) | 4.5 |
| Cc1nn(-c2ccc(F)cc2)c(Cl)c1/C=N\Nc1ccc([N+](=O)[O-])cc1S(=O)(=O)Nc1ccccc1Cl [TGC0010674] | 2.5 |  |
| O=S(=O)(Nc1ccccc1Cl)c1ccccc1Cl [TGC0011155] | 1 (0-20% inhibition) |  |
| O=S(=O)(Nc1ccccc1Cl)c1ccccc1Br [TGC0011157] | 1 (0-20% inhibition) |  |
| O=S(=O)(Nc1ccccc1Cl)c1cccc(Br)c1 [TGC0011158] | 1 (0-20% inhibition) |  |
| CC(=O)Nc1ccc(/C=N/Nc2ccc([N+](=O)[O-])cc2S(=O)(=O)Nc2ccccc2Cl)cc1 [TGC0011358] | 1.5 | 3 (41-60% inhibition) |
| O=[N+]([O-])c1ccc(N/N=C/c2ccc(O)cc2)c(S(=O)(=O)Nc2ccccc2Cl)c1 [TGC0011359] | 3 (41-60% inhibition) | 3 (41-60% inhibition) |
| COc1cc(Cl)cc(/C=N/Nc2ccc([N+](=O)[O-])cc2S(=O)(=O)Nc2ccccc2Cl)c1OCC(=O)O [TGC0011360] | 4.5 |  |
| CC/C=N/Nc1ccc([N+](=O)[O-])cc1S(=O)(=O)Nc1ccccc1Cl [TGC0011361] | 1 (0-20% inhibition) | 3.5 |
| O=[N+]([O-])c1ccc(N/N=C/c2ccccn2)c(S(=O)(=O)Nc2ccccc2Cl)c1 [TGC0011401] | 1.5 | 4 (61-80% inhibition) |
| O=[N+]([O-])c1ccc(N/N=C/c2cccnc2)c(S(=O)(=O)Nc2ccccc2Cl)c1 [TGC0011402] | 2 (21-40% inhibition) | 4 (61-80% inhibition) |
| O=[N+]([O-])c1ccc(N/N=C/c2ccncc2)c(S(=O)(=O)Nc2ccccc2Cl)c1 [TGC0011403] | 2 (21-40% inhibition) | 4 (61-80% inhibition) |
| O=[N+]([O-])c1ccc(N/N=C/c2ccc(CN3CCOCC3)cc2)c(S(=O)(=O)Nc2ccccc2Cl)c1 [TGC0011404] | 3 (41-60% inhibition) | 4 (61-80% inhibition) |
| O=[N+]([O-])c1ccc(N/N=C/c2ccnc3ccccc23)c(S(=O)(=O)Nc2ccccc2Cl)c1 [TGC0011405] |  | 4.5 |
| O=[N+]([O-])c1ccc(N/N=C/c2ccc(Oc3cccnc3)cc2)c(S(=O)(=O)Nc2ccccc2Cl)c1 [TGC0011406] |  | 4 (61-80% inhibition) |

| Compound | ELISA (βCatenin-BCL9) | CA (Wnt pathway) |
| --- | --- | --- |
| O=[N+]([O-])c1ccc(N/N=C/c2ccccc2-c2cccnc2)c(S(=O)(=O)Nc2ccccc2Cl)c1 [TGC0011409] | 3.5 | 4.5 |
| O=[N+]([O-])c1ccc(N/N=C/c2cccc(CN3CCOCC3)c2)c(S(=O)(=O)Nc2ccccc2Cl)c1 [TGC0011419] | 1.5 | 3 (41-60% inhibition) |
| O=[N+]([O-])c1ccc(N/N=C/c2cccc(OCCN3CCOCC3)c2)c(S(=O)(=O)Nc2ccccc2Cl)c1 [TGC0011420] | 1 (0-20% inhibition) | 2 (21-40% inhibition) |
| O=[N+]([O-])c1ccc(N/N=C/c2ccc(Br)cc2)c(S(=O)(=O)Nc2ccccc2Cl)c1 [TGC0011421] | 2.5 | 4 (61-80% inhibition) |
| CN1CCN(Cc2ccc(/C=N/Nc3ccc([N+](=O)[O-])cc3S(=O)(=O)Nc3ccccc3Cl)cc2)CC1 [TGC0011438] | 1 (0-20% inhibition) | 3 (41-60% inhibition) |
| N#Cc1ccc(Cl)c(NS(=O)(=O)c2ccccc2Br)c1 [TGC0011492] | 1 (0-20% inhibition) | 1 (0-20% inhibition) |
| O=S(=O)(Nc1ccccc1Cl)c1ccc(Cl)c(NS(=O)(=O)c2ccccc2Br)c1 [TGC0011493] | 1 (0-20% inhibition) | 1 (0-20% inhibition) |
| COC(=O)c1ccc(Cl)c(NS(=O)(=O)c2ccccc2Br)c1 [TGC0011494] | 1 (0-20% inhibition) | 1 (0-20% inhibition) |
| O=S(=O)(Nc1cc(S(=O)(=O)N2CCOCC2)ccc1Cl)c1ccccc1Br [TGC0011498] | 1 (0-20% inhibition) | 1 (0-20% inhibition) |
| COC(=O)c1ccc(NS(=O)(=O)c2ccccc2Br)c(Cl)c1 [TGC0011499] | 1 (0-20% inhibition) | 1 (0-20% inhibition) |
| CC(=O)Nc1ccc(Cl)c(NS(=O)(=O)c2ccccc2Br)c1 [TGC0011502] | 1 (0-20% inhibition) | 1 (0-20% inhibition) |
| C[n+]1cccc(/C=N/Nc2ccc([N+](=O)[O-])cc2S(=O)(=O)Nc2ccccc2Cl)c1.[I-] [TGC0011513] |  | 1 (0-20% inhibition) |
| C[n+]1ccccc1/C=N/Nc1ccc([N+](=O)[O-])cc1S(=O)(=O)Nc1ccccc1Cl.[I-] [TGC0011514] | 1 (0-20% inhibition) | 1 (0-20% inhibition) |
| COC(=O)c1ccc(C(=O)NNc2ccc([N+](=O)[O-])cc2S(=O)(=O)Nc2ccccc2Cl)cc1 [TGC0011562] | 2 (21-40% inhibition) | 1.5 |
| COc1ccc(/C=N/Nc2ccc([N+](=O)[O-])cc2S(=O)(=O)Nc2ccccc2Cl)cc1OC [TGC0011564] | 1 (0-20% inhibition) | 3.5 |
| O=C(NNc1ccc([N+](=O)[O-])cc1S(=O)(=O)Nc1ccccc1Cl)c1cc(Cl)cc(Cl)c1 [TGC0011568] | 1.5 | 4 (61-80% inhibition) |
| Cc1cc(-c2ccccc2)nn1-c1ccc([N+](=O)[O-])cc1S(=O)(=O)Nc1ccccc1Cl [TGC0011569] | 1.5 | 4 (61-80% inhibition) |
| Cc1cc(-c2ccccc2)n(-c2ccc([N+](=O)[O-])cc2S(=O)(=O)Nc2ccccc2Cl)n1 [TGC0011570] | 5 (81-100% inhibition) | 4 (61-80% inhibition) |
| Nc1ccc(NC(=O)Cc2ccc(Cl)cc2)c(S(=O)(=O)Nc2ccccc2Cl)c1 [TGC0011573] | 3 (41-60% inhibition) | 1 (0-20% inhibition) |
| O=C(Cc1ccc(Cl)cc1)Nc1ccc(N2CCOCC2)c(S(=O)(=O)Nc2ccccc2Cl)c1 [TGC0011574] | 3 (41-60% inhibition) | 2.5 |
| Cn1cncc1C#Cc1ccccc1S(=O)(=O)Nc1ccccc1Cl [TGC0012268] |  | 2.5 |
| CC(C)C/C=N/Nc1ccc([N+](=O)[O-])cc1S(=O)(=O)Nc1ccccc1Cl [TGC0012273] |  | 3.5 |
| CCCCCC#C/C=N/Nc1ccc([N+](=O)[O-])cc1S(=O)(=O)Nc1ccccc1Cl [TGC0012276] |  | 4.5 |
